pKi: −log10 of the molar value. Where two headings read alike, the source gives them in different places.
Experiments:
[1] = biological target: human GABAA α1β3γ2 receptor (Homo sapiens (Human), UniProt P14867+P18507); assay: Radioligand binding assay, competition for [3H]Flumazenil, γ2-containing GABAA subtypes; settings: for γ2/γ1 Selectivity Ratio: Ki α1β3γ2 (nM)/Ki α2β2γ1 (nM); for LogSel: Log[Ki α1β3γ2 (nM)/Ki α2β2γ1 (nM)]
Experimental: The affinity of compounds at GABAA γ2 subunit-containing receptors was measured by competition for [^3H]Flumazenil (81.1 Ci/mmol; Roche) binding to HEK293F cells expressing human (transiently transfected) receptors of composition α1β3γ2.
Harvested pellets from HEK293F cells expressing the different GABAA γ2 receptor subtypes were resuspended in Mannitol Buffer pH 7,2-7,4 and processed as described above for the cells expressing the GABAA γ1 subunit-containing receptors.
Assays were incubated to equilibrium for 1 hour at 4° C. and harvested onto GF/C uni-filters (Packard) by filtration using a Packard harvester and washing with ice-cold wash buffer (50 mM Tris; pH 7.5). After anhydrousing, filter-retained radioactivity was detected by liquid scintillation counting. Ki values were calculated using Excel-Fit (Microsoft) and are the means of two determinations.

[2] = biological target: human GABAA α5β2γ1 receptor (Homo sapiens (Human), UniProt P31644+Q8N1C3); assay: Radioligand binding assay, competition for [3H]RO7239181, γ1-containing GABAA subtypes
Experimental: The affinity of compounds at GABAA γ1 subunit-containing receptors was measured by competition for [^3H]RO7239181 (67.3 Ci/mmol; Roche) binding to membranes from HEK293F cells (ThermoFisher R79007) expressing human (transiently transfected) receptors of composition α5β2γ1, α2β2γ1, α1β2γ1. For better protein expression of the α2 subunit-containing receptors, the 28 amino acid long signal peptide (Met1 to Ala28) of the human GABAA α2 subunit was substituted by the 31 amino acid long signal peptide (Met1 to Ser31) of human GABAA α5 subunit.
(§1) Harvested pellets from HEK293F cells expressing the different GABAA receptor subtypes were resuspended in Mannitol Buffer pH 7.2-7.4 (Mannitol 0.29 M, Triethylamine 10 mM, Acetic acid 10 mM, EDTA 1 mM plus protease inhibitors (20 tablets Complete, Roche Diagnostics Cat. No. 05 056 489 001 per liter)), washed two times and then resuspended at 1:10 to 1:15 dilution in the same buffer. Cell disruption was performed by stirring the suspension in a Parr vessel #4637 at 435 psi for 15 minutes, and then the suspensions were centrifuged at 1000×g for 15 minutes at 4° C. (Beckman Avanti J-HC; rotor JS-4.2). The supernatant (S1) was transferred in a 21 Schott flask and the pellet (P1) was resuspended with Mannitol Buffer up to 175 ml. The resuspended pellet was transferred into a 250 ml Corning centrifugal beaker and centrifuged at 1500×g for 10 minutes at 4° C. (Beckman Avanti J-HC; rotor JS-4.2). The supernatant (S1) was then transferred in the 21 Schott flask and the pellet was discarded. The supernatants (S1) were centrifuged in 500 ml Beckman polypropylene centrifugal beaker at 15'000×g for 30 minutes at 4° C. (Beckman Avanti J-20 XP; rotor JLA-10.500). The pellet (P2) was resuspended with Mannitol Buffer 1:1 and frozen at −80° C. The supernatant (S2) was centrifuged in 100 ml Beckman polypropylene centrifugal tubes at 48000×g for 50 minutes at 4° C. (Beckman Avanti J-20 XP; rotor JA-18). The supernatant (S3) was discarded and the pellet (P3) was resuspended with 1:1 Mannitol Buffer. The P2 and P3 protein concentration was determined with the BIORAD Standard assay method with bovine serum albumin as standard and measured on the NANO-Drop 1000. The membrane suspension was aliquots (500 μl per tube) and stored at −80° C. until required.
(§2) Membrane homogenates were resuspended and polytronised (Polytron PT1200E Kinematica AG) in Potassium Phosphate 10 mM, KCl 100 mM binding buffer at pH 7.4 to a final assay concentration determined with a previous experiment.
Radioligand binding assays were carried out in a volume of 200 μL (96-well plates) which contained 100 μL of cell membranes, [^3H]RO7239181 at a concentration of 1.5 nM (α5β2γ1) or 20-30 nM (α1β2γ1, α2β2γ1) and the test compound in the range of [0.3-10000]×10^−9 M. Nonspecific binding was defined by 10×10^−6 (α5β2γ1) and 30×10^−6 M RO7239181 and typically represented less than 5% (α5β2γ1) and less than 20% (α1β2γ1, α2β2γ1) of the total binding. Assays were incubated to equilibrium for 1 hour at 4° C. and then, membranes were filtered onto unifilter (96-well white microplate with bonded GF/C filters preincubated 20-50 minutes in 0.3% Polyethylenimine) with a Filtermate 196 harvester (Packard BioScience) and washed 4 times with cold Potassium Phosphate 10 mM pH 7.4, KCl 100 mM binding buffer. After anhydrousing, filter-retained radioactivity was detected by liquid scintillation counting. Ki values were calculated using Excel-Fit (Microsoft) and are the means of two determinations.

[3] = biological target: human GABAA α1β2γ1 receptor (Homo sapiens (Human), UniProt P14867+Q8N1C3); assay: as above; settings: [3H]RO7239181 20-30 nM, Table 1
Experimental: (§3) The affinity of compounds at GABAA γ1 subunit-containing receptors was measured by competition for [^3H]RO7239181 (67.3 Ci/mmol; Roche) binding to membranes from HEK293F cells (ThermoFisher R79007) expressing human (transiently transfected) receptors of composition α5β2γ1, α2β2γ1, α1β2γ1.
as §1, §2
(§4) Assays were incubated to equilibrium for 1 hour at 4° C. and then, membranes were filtered onto unifilter (96-well white microplate with bonded GF/C filters preincubated 20-50 minutes in 0.3% Polyethylenimine) with a Filtermate 196 harvester (Packard BioScience) and washed 4 times with cold Potassium Phosphate 10 mM pH 7.4, KCl 100 mM binding buffer. After anhydrousing, filter-retained radioactivity was detected by liquid scintillation counting. Ki values were calculated using Excel-Fit (Microsoft) and are the means of two determinations.

[4] = biological target: human GABAA α2β2γ1 receptor (Homo sapiens (Human), UniProt P47869+Q8N1C3); assay: as above; settings: Ki h-GABAA α2β2γ1, membranes of HEK293F cells, [3H]RO7239181 20-30 nM
Experimental: as §3, §1, §2, §4

[5] = Ki h-GABAA α1β2γ1, membranes of HEK293F cells
[6] = HEK293F cells, [3H]Flumazenil 1 nM, Table 1, read-out: Ki h-GABAA α1β3γ2

Structure (SMILES) | pKi [1] | γ2/γ1 Selectivity Ratio ([1]; Table 1) | LogSel ([1]; Table 1) | pKi [2] | pKi [3, 5] | pKi ([4]; Table 1) | pKi ([4]; Table 2) | pKi [1, 6] | pKi ([3]; membranes of HEK293F cells, read-out: Ki h-GABAA α1β2γ1)
Cc1nnc2n1-c1sc3c(c1C(c1c(F)cccc1F)=N[C@H]2C)CCC[C@@H](F)C3 (single isomer, unassigned) [Example 16] | 5.85 | 15.8 | 1.20 | 7.87 | 6.38 | 7.05 | 7.05 |  | 
Cc1nnc2n1-c1sc3c(c1C(c1c(F)cccc1F)=NC2)CCOCC3 [Example 5, 9-(2,6-difluorophenyl)-3-methyl-14-oxa-18-thia-2,4,5,8-tetrazatetracyclo[8.8.0.02,6.011,17]octadeca-1(10),3,5,8,11(17)-pentaene] | 5.90 | 19.8 | 1.30 | 7.98 | 6.61 | 7.20 | 7.20 |  | 
[2H]C1([2H])OCc2c(sc3c2C(c2c(F)cccc2F)=N[C@@H](C)c2nc(C(=O)NCC)nn2-3)OC1([2H])[2H] [Example 38, (7S)-14,14,15,15-tetradeuterio-9-(2,6-difluorophenyl)-N-ethyl-7-methyl-13,16-dioxa-18-thia-2,3,5,8-tetrazatetracyclo[8.8.0.02,6.011,17]octadeca-1(10),3,5,8,11(17)-pentaene-4-carboxamide] |  | 224.3 | 2.35 | 8.44 |  | 7.75 | 7.75 | 5.40 | 6.91
C[C@@H]1N=C(c2c(F)cccc2F)c2c(sc3c2COCCO3)-n2cc(C(=O)NCC(C)(C)O)nc21 [Example 59, (7S)-9-(2,6-difluorophenyl)-N-(2-hydroxy-2-methyl-propyl)-7-methyl-13,16-dioxa-18-thia-2,5,8-triazatetracyclo[8.8.0.02,6.011,17]octadeca-1(10),3,5,8,11(17)-pentaene-4-carboxamide] |  | 142.9 | 2.16 | 8.64 | 7.66 | 8.05 | 8.05 | 5.90 | 
C[C@@H]1N=C(c2c(F)cccc2F)c2c(sc3c2COCCO3)-n2nc(C(=O)NCC3(O)CC3)nc21 [Example 60, (7S)-9-(2,6-difluorophenyl)-N-[(1-hydroxycyclopropyl)methyl]-7-methyl-13,16-dioxa-18-thia-2,3,5,8-tetrazatetracyclo[8.8.0.02,6.011,17]octadeca-1(10),3,5,8,11(17)-pentaene-4-carboxamide] |  | 157.4 | 2.20 | 8.54 |  | 7.63 | 7.63 | 5.43 | 
C[C@@H]1N=C(c2c(F)cccc2F)c2c(sc3c2COCCC3)-n2nc(C(=O)NC[C@](C)(O)C(F)(F)F)nc21 [Example 69, (7S)-9-(2,6-difluorophenyl)-7-methyl-N-[(2S)-3,3,3-trifluoro-2-hydroxy-2-methyl-propyl]-13-oxa-18-thia-2,3,5,8-tetrazatetracyclo[8.8.0.02,6.011,17]octadeca-1(10),3,5,8,11(17)-pentaene-4-carboxamide] |  | 59.7 | 1.78 | 8.11 |  | 7.21 | 7.21 | 5.43 | 
C[C@@H]1N=C(c2c(F)cccc2F)c2c(sc3c2COCCC3)-n2nc(C(=O)NCC(C)(C)O)nc21 [Example 71, (7S)-9-(2,6-difluorophenyl)-N-(2-hydroxy-2-methyl-propyl)-7-methyl-13-oxa-18-thia-2,3,5,8-tetrazatetracyclo[8.8.0.02,6.011,17]octadeca-1(10),3,5,8,11(17)-pentaene-4-carboxamide] |  | 49.0 | 1.69 | 8.14 |  | 7.10 | 7.10 | 5.41 | 

From patent US20240294543A1, “CYCLOHEPTA-THIENO-DIAZEPINE DERIVATIVES AS GABA A GAMMA1 PAM” (Hoffmann-La Roche Inc., priority 2021, published 2024)
